This assay addresses T1, human ATGL (Homo sapiens, UniProt Q96AD5).
T1 construct: host or cells: Expi293 cells, crude lysate
T1 sequence (Q96AD5 1-504): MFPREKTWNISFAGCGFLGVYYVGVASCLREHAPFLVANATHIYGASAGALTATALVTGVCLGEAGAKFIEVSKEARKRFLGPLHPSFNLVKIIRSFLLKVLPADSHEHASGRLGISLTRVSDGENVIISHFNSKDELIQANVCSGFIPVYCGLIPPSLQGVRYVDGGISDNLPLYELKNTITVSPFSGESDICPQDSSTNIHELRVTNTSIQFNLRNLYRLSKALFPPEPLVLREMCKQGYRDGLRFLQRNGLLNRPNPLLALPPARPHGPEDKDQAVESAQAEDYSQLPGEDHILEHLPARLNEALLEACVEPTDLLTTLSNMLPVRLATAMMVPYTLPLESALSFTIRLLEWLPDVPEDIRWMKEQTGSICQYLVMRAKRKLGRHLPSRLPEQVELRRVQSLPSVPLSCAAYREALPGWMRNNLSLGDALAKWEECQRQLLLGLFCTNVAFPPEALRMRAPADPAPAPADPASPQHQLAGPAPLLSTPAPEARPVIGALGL
Put plainly: TAG hydrolase assay, lysates of Expi293 cells overexpressing ATGL, purified CGI-58, radiolabeled triolein. The conditions noted are these: for Ki: NG-497 0.5 μM. The assay is classed as biochemical. From the text: We previously developed Atglistatin (Ai), a selective inhibitor of mouse ATGL,[31],[32] which is ineffective against human ATGL.[17] Ai acts as a competitive inhibitor targeting the minimal active domain of ATGL ranging from aa 1–254.[33] This domain is highly conserved in different mammalian species (∼90% identity, Table 1) and comprises the patatin-like domain, eponymous for all members of the patatin-like phospholipase domain-containing (PNPLA) protein family.[34] We first investigated the species selectivity of Ai by performing TAG hydrolase assays[35] with lysates from Expi293 cells expressing ATGL orthologues of different species. The activity of ATGL is strongly stimulated by the co-activator protein comparative gene identification-58 (CGI-58, also known as α/β hydrolase domain containing 5, ABHD5)[36] and can be suppressed by the inhibitory protein G0/G1 switch 2 (G0S2).[37] We therefore determined ATGL activity in the presence and absence of mouse CGI-58, mouse G0S2, and Ai. As shown in Figure 1a–i, all ATGL orthologues were expressed, enzymatically active, stimulated by mouse CGI-58, and inactivated by mouse G0S2. Ai inhibited mouse (Figure 1a), rat (Figure 1b), goat (Figure 1c), dog (Figure 1e), and marmoset ATGL (Figure 1f), but not pig (Figure 1d), rhesus monkey (Figure 1g), or human ATGL (Figure 1h).
To develop an inhibitor for human ATGL, we screened compounds synthesized in the course of the development of Ai.[31] Screenings were performed in the presence of purified CGI-58 using cell lysates of Expi293 cells overexpressing ATGL as a source of enzymatic activity and radiolabeled triolein as substrate as described above (Figure 1). […] In an iterative optimization process, which encompassed the synthesis and testing of >150 compounds (not shown), we varied the nature of the top aryl ring (Figure 2a). Replacement of the top phenyl group with a pyridine moiety (compound 2) led to a significant improvement in inhibitor efficacy (IC50 = 3 μM), which we interpret as a result from a smaller angle between the 1,3-arrangement of the aryl- and the ester-substituents due to the shorter C–N bond length within the pyridine group. […] The introduction of a methoxy residue at this position finally led to compound NG-497 showing an IC50 value of 1 μM.
Experimental details, materials, and methods
Expression of recombinant ATGL constructs and preparation of cell lysates. Expi293 cells were cultivated in Expi293 Expression Medium (GIBCO, Thermo Fisher Scientific, Waltham, USA) at standard conditions (37°C, 5% CO2, 95% humidified atmosphere, 125 rpm). DNA constructs containing ATGL from different species and chimeric ATGL variants in pcDNA3.1(+)myc-His C Vector were obtained from BioCat GmbH (Heidelberg, Germany). Cells were transfected with ExpiFectamine293 Transfection Kit (GIBCO) in Opti-Mem reduced serum medium (GIBCO) according to the manufacturer’s instructions. After 48 h, cells were harvested by centrifugation and washed three times with PBS. Cells were disrupted in buffer A (0.25 M sucrose, 1 mM EDTA, 1 mM dithiothreitol, 20µg/ml leupeptin, 2 µg/ml antipain, 1 µg/ml pepstatin, pH 7.0) by sonication (Virsonic 475, Virtis, Gardiner, USA). Nuclei and debris were removed by centrifugation at 1,000 g and 4°C for 10 min. Protein concentrations were determined using Bio-Rad protein assay (Bio-Rad 785, Bio-Rad Laboratories, Munich, Germany) using BSA as standard.
Expression and purification of mouse CGI-58. CGI-58 was expressed and purified as described 1. In brief, the coding sequence of mouse Cgi-58 was cloned into pHis-Sumo and co-transformed with the plasmid pTf16 expressing the chaperone Tig into E. coli BL21(DE3). Cells were cultured overnight at 37°C and 180 rpm in the presence of 40 µg/ml kanamycin and 34 µg/ml chloramphenicol. Thereafter, cells were transferred into fresh LB medium, grown until OD600 of 0.6, and expression was induced […]
by the addition of 0.5 mM IPTG. […]

Molecules are shown by their SMILES.

The term IC50 denotes the concentration at which inhibition is half-maximal. Higher therefore signals a need for much substance. One may read the Ki as the dissociation constant of the complex between target and ligand, obtained from inhibition or displacement.

Consider `CCOc1ccc(-c2cc(OC)cc(C(=O)OC(C)C)n2)cc1` [NG-497], for which the “inhibition of ATGL orthologue” value (NG-497 50 μM, human ATGL) was “inactivates”. For the same compound, where the note is “NG-497 100 μM”, the “inactivation of TAG hydrolase activity of ATGL (PNPLA2)” value is “inactivated”. The “mechanism of inhibition (Lineweaver–Burk analysis)” value (increase of apparent Km, Vmax not affected) is “reversible and competitive inhibition”. The concentration for half-maximal inhibition (IC50) (inhibition of TAG hydrolase activity of human ATGL, Expi293 lysates, purified CGI-58, radiolabeled triolein) came out at 1000 nM. In addition, the inhibition constant Ki is, setting by setting: (nonlinear regression (GraphPad Prism), Figure 2c) 490 ± 20 nM; (nonlinear regression, varying substrate concentration) 500 nM.

(Values after PMC9011347, “Small-Molecule Inhibitors Targeting Lipolysis in Human Adipocytes” (Journal of the American Chemical Society, 2022).)
